Measured values: patent US8993717B2, “Gadd45beta targeting agents” (Imperial Innovations Limited, priority 2009, dated 2015)
Where two headings read alike, the source gives them in different places. Square brackets hold non-standard residues; d marks the D form. Peptide text beside a SMILES is read from it. * marks the point of attachment. Cbz = O=C(OCc1ccccc1)*

What was measured:
Gadd45β/MKK7 interaction = biological target: T1, Gadd45β/MKK7 interaction (Homo sapiens, UniProt O14733); assay: ELISA competition assay of biotin-hGadd45β binding to coated GST-MKK7
T1 construct: The GST-fused full-length kinase was coated for 16 h at 4° C., at a concentration of 42 nM; made in house
T1 sequence (O14733 1-419): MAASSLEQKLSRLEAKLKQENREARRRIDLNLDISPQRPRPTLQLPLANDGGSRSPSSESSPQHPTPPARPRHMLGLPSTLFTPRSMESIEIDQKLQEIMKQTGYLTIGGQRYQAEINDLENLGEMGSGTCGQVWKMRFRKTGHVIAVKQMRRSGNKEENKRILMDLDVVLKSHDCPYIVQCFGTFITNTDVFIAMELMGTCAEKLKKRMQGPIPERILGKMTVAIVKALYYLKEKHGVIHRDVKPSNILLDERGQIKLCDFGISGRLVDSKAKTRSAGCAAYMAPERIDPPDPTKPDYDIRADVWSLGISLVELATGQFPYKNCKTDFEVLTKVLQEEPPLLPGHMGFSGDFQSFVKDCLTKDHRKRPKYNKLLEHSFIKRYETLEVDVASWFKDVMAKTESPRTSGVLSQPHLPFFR
Outline: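 GST-MKK7 (42 nM) coated in Tris pH 7.5 buffer, 16 h, 4 °C; biotin-hGadd45β (21 nM) added with competitor peptides (0.01–100 nM), 1 h, 37 °C. Streptavidin-HRP/o-phenylenediamine read at 490 nm; binding expressed as % of signal without competitor.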

[1] = test system: U266, KMS-11, NCI-H929, BJAB and U937 tumour cell lines; assay: [3H]thymidine incorporation assay in tumour cell lines at 10 μM; type: cell-based, human; conditions: up to 144 hrs, result in words
Protocol: All experiments were performed in triplicate.

[2] = test system: primary multiple myeloma cells; assay: Trypan blue exclusion assay in primary multiple myeloma cells from patients; type: cell-based, human; conditions: 1 μM or 10 μM, 48 hrs, 5 patients
Source text: To confirm that Z-/mDTPs retain cytotoxic activity in primary multiple myeloma cells, we examined the effects of Z-DTP1 and Z-DTP2 on the survival of multiple myeloma cells isolated from patients with a clinical diagnosis of multiple myeloma. To this end, multiple myeloma cells were purified from bone marrow (BM) aspirates of multiple myeloma patients by […], using CD138-conjugated magnetic beads, essentially as described in the reference by Hideshima T. et all 2006, Blood 107: 4053-4062. The purity of multiple myeloma cells was confirmed by flow cytometric, using and CD138 and anti-CD45 antibodies, also essentially in accordance with the procedure described in the reference by Hideshima T. et all 2006, Blood 107: 4053-4062. Purified CD138^+ BM cells were then cultured at a concentration of 4×10^5 cells/ml in wells of 96-well plates and treated with either 1 μM or 10 μM of Z-DTP1, Z-DTP2 or Z-DNC for 48 hrs. Cell viability was measured by cell counting using trypan blue exclusion assays (FIGS. 14A, 14B, 14C, 14D, and 14E).

[3] = test system: sh-NS-expressing ARH-77 cells
[4] = test system: sh-MKK7-expressing ARH-77 cells
[5] = Table V, FIG. 3C, read-out: IC50 ELISA

Row | Structure (SMILES) | IC50 (Gadd45β/MKK7 interaction; [5]) [nM] | tumoricidal/cytotoxic activity in tumour cell lines [1] | cytotoxic activity in primary multiple myeloma cells [2] | IC50 [3] [nM] | IC50 [4] [nM] | IC50 (Gadd45β/MKK7 interaction; Table V, peptides 0.01-10 nM, read-out: IC50 ELISA) [nM] | IC50 (Gadd45β/MKK7 interaction) [nM]
1 | CC(=O)N[C@H](Cc1ccc(O)cc1)C(=O)N[C@H](CC(=O)O)C(=O)N[C@H](Cc1c[nH]cn1)C(=O)N[C@H](Cc1ccccc1)C(N)=O [DTP1, Acetyl-(D-Tyr)-(D-Asp)-(D-His)-(D-Phe)-NH2] (Ac-[dY][dD][dH][dF]-NH2) | 0.22 | not |  |  |  |  | 
2 | CC(=O)N[C@H](Cc1ccc(O)cc1)C(=O)N[C@H](CCC(=O)O)C(=O)N[C@H](CCCNC(=N)N)C(=O)N[C@H](Cc1ccccc1)C(N)=O [DTP2, Acetyl-(D-Tyr)-(D-Glu)-(D-Arg)-(D-Phe)-NH2] (Ac-[dY][dE][dR][dF]-NH2) | 0.19 | inactivity |  |  |  |  | 
3 | N=C(N)NCCC[C@@H](NC(=O)[C@@H](CCC(=O)O)NC(=O)[C@@H](Cc1ccc(O)cc1)NC(=O)OCc1ccccc1)C(=O)N[C@H](Cc1ccccc1)C(N)=O [Compound 9, Z-D-Tyr-D-Glu-D-Arg-D-Phe-NH2] (Cbz-[dY][dE][dR][dF]-NH2) |  | high cytotoxic activity | strong cytotoxic activity | 302 | > 10000 |  | 
4 | NC(=O)[C@@H](Cc1ccccc1)NC(=O)[C@@H](Cc1c[nH]cn1)NC(=O)[C@@H](CC(=O)O)NC(=O)[C@@H](Cc1ccc(O)cc1)NC(=O)OCc1ccccc1 [Compound 1, Z-Tyr-Asp-His-Phe-NH2] (Cbz-[dY][dD][dH][dF]-NH2) |  |  | strong cytotoxic activity | 1400 | > 10000 | 0.22 | 
5 | CC(=O)N[C@H](Cc1ccc(O)cc1)C(=O)N[C@H](CCCNC(=N)N)C(=O)N[C@H](Cc1ccccc1)C(N)=O [Compound 17, Ac-D-Tyr-D-Arg-D-Phe-NH2] (Ac-[dY]-[dR]-[dF]-NH2) |  |  | Strong cytotoxic activity | 303 | > 10000 |  | 0.157
